Experimental data: patent publication US12336980B2, “Dosing regimen for a selective S1P1 receptor agonist” (Vanda Pharmaceuticals Inc., priority 2014, dated 2025)

How the values were obtained:
[1] = tested on: healthy subjects; assay: 12-lead ECG, heart rate, PR interval and ECG abnormalities, cross-over up-titration study; type: in vivo, human; settings: for mean maximum change from baseline in HR (12-lead ECG): Day 2, 2 h post-dose; for mean maximum change from baseline in HR (12-lead ECG) / decrease in HR vs. baseline (12-lead ECG): mean±SD; for decrease in HR vs. baseline (12-lead ECG): Day 3, 2 h after administration; for time for HR to return to baseline values post-dose (12-lead ECG): Day 2; for occurrence of HR <45 bpm, events / occurrence of HR <45 bpm, subjects: any time during the regimen, 12-lead ECG; for occurrence of PR interval >210 ms, events / occurrence of PR interval >210 ms, subjects: during the course of the study; for occurrence of HR <45 bpm, HR decrease >20 bpm, PR interval ≥200 ms or PR increase >20 ms, events / occurrence of HR <45 bpm, HR decrease >20 bpm, PR interval ≥200 ms or PR increase >20 ms, subjects / percentage of subjects with at least one event (HR <45 bpm, HR decrease >20 bpm, PR ≥200 ms, PR increase >20 ms): first 12 hours on Day 2
Description: In a single-center, double-blind, placebo-controlled, randomized, two-way cross-over study, 32 healthy subjects (15 males) received placebo on Day 1 followed by multiple-dose administration of either ponesimod or placebo (ratio 3:1). Ponesimod was administered alternately using regimen A (incremental dose increase from 2 to 20 mg) or B (10 mg for 7 days followed by a single-dose administration of 20 mg). Cardiodynamic (Holter and 12-lead ECG), pharmacokinetic, pharmacodynamic (total lymphocyte count), and safety variables were assessed.
(§1) The enrolled subjects came to the study center for each treatment period on Day −2 and participated in a run-in (all study procedures performed without study drug administration) on Day −1. On Day 1, subjects were randomized to one of the two possible sequences of the two up-titration regimens A and B (ratio 1:1). On Day 1, all subjects received placebo; the first study drug administration (or its matching placebo) occurred on Day 2. Regimen A consisted of the novel up-titration regimen: ponesimod was administered once daily (o.d.) orally at a dose of 2 mg on Day 2 and Day 3, 3 mg on Day 4 and Day 5, 4 mg on Day 6 and Day 7, 5 mg on Day 8, 6 mg on Day 9, 7 mg on Day 10, 8 mg on Day 11, 9 mg on Day 12, 10 mg on Day 13 and Day 14, and 20 mg on Day 15. The reference regimen (regimen B) was based on previous studies (Olsson T. et al., Oral ponesimod in relapsing-remitting multiple sclerosis: a randomised phase II trial. J Neurol Neurosurg Psychiatry. 2014; 85 (11): 1198-1208; and Vaclavkova A. et al., Oral ponesimod in patients with chronic plaque psoriasis: a randomised, double-blind, placebo-controlled phase 2 trial. Lancet. 2014; 384 (9959): 2036-2045) and consisted of an o.d. oral administration of ponesimod at a dose of 10 mg for 7 days (i.e., from Day 2 to Day 8) and 20 mg on Day 9. From Day 10 to Day 15 subjects received o.d. the matching placebo. In the placebo group (1:1 sex ratio), subjects received placebo from Day 1 to Day 15. All treatments were administered at the same time in the morning (fasted condition) with approximately 240 mL of water.
Cardiodynamic endpoints were assessed using Holter and 12-lead ECG. The 24-h Holter recordings were performed on Day -1, Day 1, Day 2, Day 9, Day 13, and Day 15. The 12-h Holter recordings were performed on the other days. In addition, Holter data were used to estimate the area under the effect curve (AUEC) for HR. 12-lead ECGs were performed from Day −1 to Day 16 at pre-dose and 1, 2, 3, 4, 5, 6, 8, 10, and 12 h after study drug administration. An additional 12-lead ECG recording was performed at EOFP and EOS. Heart rate nadir, Emax (maximum decrease of mean hourly HR from baseline, which was defined as the mean of the time-matched assessments measured on Day −1 and Day 1 pre-dose), and occurrence of values of interest (HR <45 bpm, HR decrease from baseline >20 bpm, and PR interval increase from baseline >20 ms), and AV-blocks (i.e., […]) were obtained with 12-lead ECG.
Cardiodynamic and pharmacodynamic data are expressed as mean±SD. Repeated measure one-way ANOVAs followed by Tukey's multiple-comparisons tests were used to perform inter-group (i.e., placebo vs. regimen A vs. regimen B) comparisons. Student's t-tests were employed to perform intra-group (baseline vs. treatment) comparisons. Differences were considered to be statistically significant at p <0.05. SAS® version 9.2 (SAS Institute, Cary, NC, USA) was used for the statistical analysis and descriptive statistics of clinical data.

[2] = tested on: healthy subjects; assay: Vital signs, supine blood pressure; type: in vivo, human; settings: first administration, mean±SD
From the text: as §1
Safety and tolerability were evaluated by monitoring adverse events (AEs), vital signs measurements (supine blood pressure), pulmonary function tests (PFTs; i.e., FEV1 and FVC), clinical laboratory, physical, and neurological examinations. Recording of blood pressure was performed at the same time-points as 12-lead ECG.

[3] = Regimen A (N = 24), Day 2 to EOFP or EOS visit
[4] = Regimen B (N = 24), Day 2 to EOFP or EOS visit

SMILES: CCC/N=C1\S/C(=C\c2ccc(OC[C@H](O)CO)c(Cl)c2)C(=O)N1c1ccccc1C [ponesimod, (R)-5-[3-chloro-4-(2,3-dihydroxy-propoxy)-benz[Z]ylidene]-2-([Z]-propylimino)-3-o-tolyl-thiazolidin-4-one]
- mean maximum change from baseline in HR (12-lead ECG) ([1]; 2 mg (regimen A)): −9±5.3 bpm
- decrease in HR vs. baseline (12-lead ECG) ([1]; 2 mg second dose): −9±5.2 bpm
- mean maximum change from baseline in HR (12-lead ECG) ([1]; 10 mg (regimen B)): −13±6.2 bpm
- decrease in HR vs. baseline (12-lead ECG) ([1]; 10 mg second dose): −10±5.1 bpm
- pre-dose HR values (range) ([1]; Day 4 to last day of administration, ponesimod-treated subjects): 56-60 bpm
- Atrial rhythm, number of events [1, 3]: 19
- Atrial rhythm, number of subjects [1, 3]: 4
- Atrial rhythm, percentage of subjects [1, 3]: 16.7 percentage
- Sinus bradycardia, number of events [1, 3]: 3
- Sinus bradycardia, number of subjects [1, 3]: 3
- Sinus bradycardia, percentage of subjects [1, 3]: 12.5 percentage
- Supraventricular extrasystoles, number of events [1, 3]: 15
- Supraventricular extrasystoles, number of subjects [1, 3]: 3
- Supraventricular extrasystoles, percentage of subjects [1, 3]: 12.5 percentage
- Ventricular extrasystoles, number of events [1, 3]: 1
- Ventricular extrasystoles, number of subjects [1, 3]: 1
- Ventricular extrasystoles, percentage of subjects [1, 3]: 4.2 percentage
- AV-block 1st degree, number of events [1, 4]: 130
- AV-block 1st degree, number of subjects [1, 4]: 6
- AV-block 1st degree, percentage of subjects [1, 4]: 25.0 percentage
- AV-block 2nd degree Mobitz I, number of events [1, 4]: 1
- AV-block 2nd degree Mobitz I, number of subjects [1, 4]: 1
- AV-block 2nd degree Mobitz I, percentage of subjects [1, 4]: 4.2 percentage
- Atrial fibrillation, number of subjects [1, 4]: 1
- Atrial fibrillation, percentage of subjects [1, 4]: 4.2 percentage
- Atrial rhythm, number of events [1, 4]: 12
- Atrial rhythm, number of subjects [1, 4]: 2
- Atrial rhythm, percentage of subjects [1, 4]: 8.3 percentage
- QT prolonged, number of events [1, 4]: 142
- QT prolonged, number of subjects [1, 4]: 6
- QT prolonged, percentage of subjects [1, 4]: 25.0 percentage
- Short PQ, number of events [1, 4]: 147
- Short PQ, number of subjects [1, 4]: 6
- Short PQ, percentage of subjects [1, 4]: 25.0 percentage
- Sinus arrhythmia, number of events [1, 4]: 98
- Sinus arrhythmia, number of subjects [1, 4]: 12
- Sinus arrhythmia, percentage of subjects [1, 4]: 50.0 percentage
- Sinus bradycardia, number of events [1, 4]: 33
- Sinus bradycardia, number of subjects [1, 4]: 3
- Sinus bradycardia, percentage of subjects [1, 4]: 12.5 percentage
- Supraventricular extrasystoles, number of events [1, 4]: 29
- Supraventricular extrasystoles, number of subjects [1, 4]: 7
- Supraventricular extrasystoles, percentage of subjects [1, 4]: 29.2 percentage
- Ventricular extrasystoles, number of events [1, 4]: 3
- Ventricular extrasystoles, number of subjects [1, 4]: 3
- Ventricular extrasystoles, percentage of subjects [1, 4]: 12.5 percentage
- Atrial fibrillation, number of events ([1]; Regimen B (N = 24), Day 2 to EOFP or EOS visit, *Serious adverse event): 1
- time for HR to return to baseline values post-dose (12-lead ECG) ([1]; regimen A): ≤ 3 h
- occurrence of HR <45 bpm, events ([1]; regimen A): 20 events
- occurrence of HR <45 bpm, subjects ([1]; regimen A): 3 subjects
- occurrence of PR interval >210 ms, events ([1]; regimen A): 79 events
- occurrence of PR interval >210 ms, subjects ([1]; regimen A): 6 subjects
- occurrence of HR <45 bpm, HR decrease >20 bpm, PR interval ≥200 ms or PR increase >20 ms, events ([1]; regimen A): 14 events
- occurrence of HR <45 bpm, HR decrease >20 bpm, PR interval ≥200 ms or PR increase >20 ms, subjects ([1]; regimen A): 6 subjects
- percentage of subjects with at least one event (HR <45 bpm, HR decrease >20 bpm, PR ≥200 ms, PR increase >20 ms) ([1]; regimen A): 25%
- time for HR to return to baseline values post-dose (12-lead ECG) ([1]; regimen B): ≤ 4 h
- occurrence of HR <45 bpm, events ([1]; regimen B): 58 events
- occurrence of HR <45 bpm, subjects ([1]; regimen B): 4 subjects
- occurrence of PR interval >210 ms, events ([1]; regimen B): 143 events
- occurrence of PR interval >210 ms, subjects ([1]; regimen B): 8 subjects
- occurrence of HR <45 bpm, HR decrease >20 bpm, PR interval ≥200 ms or PR increase >20 ms, events ([1]; regimen B): 43 events
- occurrence of HR <45 bpm, HR decrease >20 bpm, PR interval ≥200 ms or PR increase >20 ms, subjects ([1]; regimen B): 12 subjects
- percentage of subjects with at least one event (HR <45 bpm, HR decrease >20 bpm, PR ≥200 ms, PR increase >20 ms) ([1]; regimen B): 50%
- decrease in DBP ([2]; regimen A): −7±5.3 mmHg
- decrease in SBP ([2]; regimen A): −4±4.4 mmHg
- decrease in DBP ([2]; regimen B): −10±4.4 mmHg
- decrease in SBP ([2]; regimen B): −5±7.7 mmHg
